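Exposure lasted 48 hours, with cells grown in 96-well plates and compounds tested at five concentrations. The concentration for 50% growth inhibition is given as GI50.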 Calls of active or inactive are those of the source. No stated cut-off is given here; in the data, active = GI50 up to about 1.1 µM and inactive = higher.
What was measured:
Experiment in all cases: NCI-60 cell line screen, 48 h
786-0 = test system: 786-0
A549 = test system: A549
ACHN = test system: ACHN
CCRF-CEM = test system: CCRF-CEM
COLO 205 = test system: COLO 205
DLD-1 = test system: DLD-1
DMS-114 = test system: DMS-114
DMS-273 = test system: DMS-273
EKVX = test system: EKVX
HCC 2998 = test system: HCC 2998
HCT-116 = test system: HCT-116
HCT-15 = test system: HCT-15
HL-60 = test system: HL-60
HOP-62 = test system: HOP-62
HT-29 = test system: HT-29
IGROV-1 = test system: IGROV-1
K562 = test system: K562
KM-20L2 = test system: KM-20L2
KM12 = test system: KM12
LOX IMVI = test system: LOX IMVI
LXFL 529 = test system: LXFL 529
M14 = test system: M14
M19-MEL = test system: M19-MEL
MOLT-4 = test system: MOLT-4
Malme-3M = test system: Malme-3M
NCI-H226 = test system: NCI-H226
NCI-H23 = test system: NCI-H23
NCI-H460 = test system: NCI-H460
NCI-H522 = test system: NCI-H522
OVCAR-3 = test system: OVCAR-3
OVCAR-8 = test system: OVCAR-8
RPMI-8226 = test system: RPMI-8226
RXF 393 = test system: RXF 393
SF-268 = test system: SF-268
SF-295 = test system: SF-295
SF-539 = test system: SF-539
SK-MEL-28 = test system: SK-MEL-28
SK-OV-3 = test system: SK-OV-3
SN12C = test system: SN12C
SNB-19 = test system: SNB-19
SNB-75 = test system: SNB-75
SNB-78 = test system: SNB-78
SR = test system: SR
SW-620 = test system: SW-620
TK-10 = test system: TK-10
U-251 = test system: U-251
UACC-257 = test system: UACC-257
UACC-62 = test system: UACC-62
UO-31 = test system: UO-31
A498 = test system: A498
CAKI-1 = test system: CAKI-1
OVCAR-4 = test system: OVCAR-4
SK-MEL-2 = test system: SK-MEL-2
SK-MEL-5 = test system: SK-MEL-5
XF498 = test system: XF498
HOP-92 = test system: HOP-92

Cn1c(=O)c(C(=O)NC23CC4CC(CC(C4)C2)C3)c(O)c2ccccc21
GI50 (786-0): 14.3 µM (inactive) | GI50 (A549): 28.8 µM (inactive) | GI50 (ACHN): 19.9 µM (inactive) | GI50 (CCRF-CEM): > 100 µM (inactive) | GI50 (COLO 205): 46.1 µM (inactive) | GI50 (DLD-1): 50.7 µM (inactive) | GI50 (DMS-114): 45.6 µM (inactive) | GI50 (DMS-273): 26.2 µM (inactive) | GI50 (EKVX): 31.5 µM (inactive) | GI50 (HCC 2998): > 10 µM (inactive) | GI50 (HCT-116): 23.5 µM (inactive) | GI50 (HCT-15): > 100 µM | GI50 (HL-60): 25.1 µM (inactive) | GI50 (HOP-62): 21.8 µM (inactive) | GI50 (HT-29): 15.8 µM (inactive) | GI50 (IGROV-1): 31.8 µM (inactive) | GI50 (K562): > 100 µM (inactive) | GI50 (KM-20L2): 28.9 µM (inactive) | GI50 (KM12): > 100 µM (inactive) | GI50 (LOX IMVI): 43.4 µM (inactive) | GI50 (LXFL 529): 59.4 µM (inactive) | GI50 (M14): 28.8 µM (inactive) | GI50 (M19-MEL): 49.8 µM (inactive) | GI50 (MOLT-4): > 100 µM (inactive) | GI50 (Malme-3M): 21.2 µM (inactive) | GI50 (NCI-H226): 13.4 µM (inactive) | GI50 (NCI-H23): 67.9 µM (inactive) | GI50 (NCI-H460): 22.3 µM (inactive) | GI50 (NCI-H522): > 100 µM (inactive) | GI50 (OVCAR-3): 23.4 µM (inactive) | GI50 (OVCAR-8): 23.3 µM (inactive) | GI50 (RPMI-8226): > 100 µM (inactive) | GI50 (RXF 393): 14.8 µM (inactive) | GI50 (SF-268): 74.5 µM (inactive) | GI50 (SF-295): 18.5 µM (inactive) | GI50 (SF-539): 26.7 µM (inactive) | GI50 (SK-MEL-28): 37.7 µM (inactive) | GI50 (SK-OV-3): 20.9 µM (inactive) | GI50 (SN12C): 21.9 µM (inactive) | GI50 (SNB-19): 21.2 µM (inactive) | GI50 (SNB-75): 28.4 µM (inactive) | GI50 (SNB-78): 43.3 µM (inactive) | GI50 (SR): > 100 µM (inactive) | GI50 (SW-620): 56.1 µM (inactive) | GI50 (TK-10): 23.8 µM (inactive) | GI50 (U-251): 24.5 µM (inactive) | GI50 (UACC-257): 28.8 µM (inactive) | GI50 (UACC-62): 53.7 µM (inactive) | GI50 (UO-31): 50.1 µM (inactive)

C=C1CC(CC)(CCN2C(=O)c3ccccc3C2=O)OC1=O (stereo unspecified)
GI50 (786-0): 11.9 µM (inactive) | GI50 (A498): 19.2 µM (inactive) | GI50 (A549): 27.7 µM (inactive) | GI50 (ACHN): 14.9 µM (inactive) | GI50 (CAKI-1): 2.09 µM (inactive) | GI50 (CCRF-CEM): 7.71 µM (inactive) | GI50 (COLO 205): 16.7 µM (inactive) | GI50 (DLD-1): 17.9 µM (inactive) | GI50 (DMS-114): 19.2 µM (inactive) | GI50 (DMS-273): 11.4 µM (inactive) | GI50 (EKVX): 17 µM (inactive) | GI50 (HCC 2998): 17.7 µM (inactive) | GI50 (HCT-116): 12.6 µM (inactive) | GI50 (HCT-15): 13.9 µM | GI50 (HL-60): 9.2 µM (inactive) | GI50 (HOP-62): 35.9 µM (inactive) | GI50 (HT-29): 14.1 µM (inactive) | GI50 (IGROV-1): 35.8 µM (inactive) | GI50 (K562): 20.8 µM (inactive) | GI50 (KM-20L2): 15.8 µM (inactive) | GI50 (KM12): 21 µM (inactive) | GI50 (LOX IMVI): 14.2 µM (inactive) | GI50 (LXFL 529): 13.6 µM (inactive) | GI50 (M14): 10.9 µM (inactive) | GI50 (MOLT-4): 21.9 µM (inactive) | GI50 (Malme-3M): 11.8 µM (inactive) | GI50 (NCI-H226): 13.8 µM (inactive) | GI50 (NCI-H23): 14.1 µM (inactive) | GI50 (NCI-H460): 69.2 µM (inactive) | GI50 (NCI-H522): 3.48 µM (inactive) | GI50 (OVCAR-4): 14.2 µM (inactive) | GI50 (OVCAR-8): 16.4 µM (inactive) | GI50 (RPMI-8226): 22.7 µM (inactive) | GI50 (RXF 393): 15.5 µM (inactive) | GI50 (SF-268): 1.08 µM (active) | GI50 (SF-295): 29.2 µM (inactive) | GI50 (SF-539): 18.9 µM (inactive) | GI50 (SK-MEL-2): 12.9 µM (inactive) | GI50 (SK-MEL-5): 12.9 µM (inactive) | GI50 (SN12C): 18.6 µM (inactive) | GI50 (SNB-19): > 10 µM (inactive) | GI50 (SNB-75): 43.8 µM (inactive) | GI50 (SR): 27.4 µM (inactive) | GI50 (SW-620): 7.55 µM (inactive) | GI50 (TK-10): 17.7 µM (inactive) | GI50 (U-251): > 10 µM (inactive) | GI50 (UACC-257): 13.8 µM (inactive) | GI50 (UACC-62): 13.3 µM (inactive) | GI50 (UO-31): 19.7 µM (inactive) | GI50 (XF498): 13.4 µM (inactive)

CCCNC1CC(n2cc(C)c(=O)[nH]c2=O)OC1CO (stereo unspecified)
GI50 (786-0): > 100 µM (inactive) | GI50 (ACHN): > 100 µM (inactive) | GI50 (CAKI-1): > 100 µM (inactive) | GI50 (CCRF-CEM): > 100 µM (inactive) | GI50 (COLO 205): > 100 µM (inactive) | GI50 (DLD-1): > 100 µM (inactive) | GI50 (DMS-114): > 100 µM (inactive) | GI50 (DMS-273): > 100 µM (inactive) | GI50 (HCC 2998): > 100 µM (inactive) | GI50 (HCT-116): > 100 µM (inactive) | GI50 (HL-60): > 100 µM (inactive) | GI50 (HOP-62): > 100 µM (inactive) | GI50 (HOP-92): > 100 µM (inactive) | GI50 (IGROV-1): > 100 µM (inactive) | GI50 (K562): > 100 µM (inactive) | GI50 (LXFL 529): > 100 µM (inactive) | GI50 (M14): > 100 µM (inactive) | GI50 (M19-MEL): > 100 µM (inactive) | GI50 (MOLT-4): > 100 µM (inactive) | GI50 (Malme-3M): > 100 µM (inactive) | GI50 (NCI-H226): > 100 µM (inactive) | GI50 (NCI-H23): > 100 µM (inactive) | GI50 (NCI-H460): > 100 µM (inactive) | GI50 (NCI-H522): > 100 µM (inactive) | GI50 (OVCAR-4): > 100 µM (inactive) | GI50 (RPMI-8226): > 100 µM (inactive) | GI50 (SF-268): > 100 µM (inactive) | GI50 (SF-539): > 100 µM (inactive) | GI50 (SK-MEL-28): > 100 µM (inactive) | GI50 (SK-MEL-2): > 100 µM (inactive) | GI50 (SK-OV-3): > 100 µM (inactive) | GI50 (SN12C): > 100 µM (inactive) | GI50 (SNB-75): > 100 µM (inactive) | GI50 (SNB-78): > 100 µM (inactive) | GI50 (SR): > 100 µM (inactive) | GI50 (UACC-62): > 100 µM (inactive) | GI50 (UO-31): > 100 µM (inactive)
